Test results: publication PMC7156458, “Synthetic biology based construction of biological activity-related library of fungal decalin-containing diterpenoid pyrones” (Nature Communications, 2020)

Biological target: Aβ42 (Homo sapiens, UniProt P05067)
Assay: Th-T (thioflavin-T) assay of Aβ42 aggregation
Assay type: biochemical
Conditions: for Th-T fluorescence of Aβ42 with compound, mean of three wells (Fig. 7a source data): concentration 50, unit not given

Aβ42, sequence (P05067 672-713): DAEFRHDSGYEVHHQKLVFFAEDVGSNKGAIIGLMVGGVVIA

C=C1CCC2C(C)(CCC=C(C)C)C(O)CCC2(C)C1Cc1c(OC)oc(CO)c(C)c1=O (stereo not drawn) [Compound 12]
Th-T fluorescence of Aβ42 with compound, mean of three wells (Fig. 7a source data) (time-course reading M143): 1.6964
Th-T fluorescence of Aβ42 with compound, mean of three wells (Fig. 7a source data) (time-course reading M144): 1.681
Th-T fluorescence of Aβ42 with compound, mean of three wells (Fig. 7a source data) (time-course reading M145): 1.696
Th-T fluorescence of Aβ42 (sheet Fig. 7a), mean of three wells (head suffix _10 (concentration 10), reading M63): 3.408
Th-T fluorescence of Aβ42 (sheet Fig. 7a), mean of three wells (head suffix _10 (concentration 10), reading M64): 3.415
Th-T fluorescence of Aβ42 (sheet Fig. 7a), mean of three wells (head suffix _10 (concentration 10), reading M65): 3.397
Th-T fluorescence of Aβ42 (sheet Fig. 7a), mean of three wells (head suffix _10 (concentration 10), reading M66): 3.3918
Th-T fluorescence of Aβ42 (sheet Fig. 7a), mean of three wells (head suffix _10 (concentration 10), reading M67): 3.364
Th-T fluorescence of Aβ42 (sheet Fig. 7a), mean of three wells (head suffix _10 (concentration 10), reading M68): 3.364
Th-T fluorescence of Aβ42 (sheet Fig. 7a), mean of three wells (head suffix _10 (concentration 10), reading M69): 3.344
Th-T fluorescence of Aβ42 (sheet Fig. 7a), mean of three wells (head suffix _10 (concentration 10), reading M70): 3.357
Th-T fluorescence of Aβ42 (sheet Fig. 7a), mean of three wells (head suffix _10 (concentration 10), reading M71): 3.333
Th-T fluorescence of Aβ42 (sheet Fig. 7a), mean of three wells (head suffix _10 (concentration 10), reading M72): 3.332
Th-T fluorescence of Aβ42 (sheet Fig. 7a), mean of three wells (head suffix _10 (concentration 10), reading M73): 3.302
Th-T fluorescence of Aβ42 (sheet Fig. 7a), mean of three wells (head suffix _10 (concentration 10), reading M74): 3.307
Th-T fluorescence of Aβ42 (sheet Fig. 7a), mean of three wells (head suffix _10 (concentration 10), reading M75): 3.295
Th-T fluorescence of Aβ42 (sheet Fig. 7a), mean of three wells (head suffix _10 (concentration 10), reading M76): 3.265
Th-T fluorescence of Aβ42 (sheet Fig. 7a), mean of three wells (head suffix _10 (concentration 10), reading M77): 3.239
Th-T fluorescence of Aβ42 (sheet Fig. 7a), mean of three wells (head suffix _10 (concentration 10), reading M78): 3.245
Th-T fluorescence of Aβ42 (sheet Fig. 7a), mean of three wells (head suffix _10 (concentration 10), reading M79): 3.216
Th-T fluorescence of Aβ42 (sheet Fig. 7a), mean of three wells (head suffix _10 (concentration 10), reading M80): 3.214
Th-T fluorescence of Aβ42 (sheet Fig. 7a), mean of three wells (head suffix _10 (concentration 10), reading M81): 3.199
Th-T fluorescence of Aβ42 (sheet Fig. 7a), mean of three wells (head suffix _10 (concentration 10), reading M82): 3.17
Th-T fluorescence of Aβ42 (sheet Fig. 7a), mean of three wells (head suffix _10 (concentration 10), reading M83): 3.151
Th-T fluorescence of Aβ42 (sheet Fig. 7a), mean of three wells (head suffix _10 (concentration 10), reading M84): 3.157
Th-T fluorescence of Aβ42 (sheet Fig. 7a), mean of three wells (head suffix _20 (concentration 20), reading M63): 2.111
Th-T fluorescence of Aβ42 (sheet Fig. 7a), mean of three wells (head suffix _20 (concentration 20), reading M64): 2.103
Th-T fluorescence of Aβ42 (sheet Fig. 7a), mean of three wells (head suffix _20 (concentration 20), reading M65): 2.121
Th-T fluorescence of Aβ42 (sheet Fig. 7a), mean of three wells (head suffix _20 (concentration 20), reading M66): 2.113
Th-T fluorescence of Aβ42 (sheet Fig. 7a), mean of three wells (head suffix _20 (concentration 20), reading M67): 2.119
Th-T fluorescence of Aβ42 (sheet Fig. 7a), mean of three wells (head suffix _20 (concentration 20), reading M68): 2.108
Th-T fluorescence of Aβ42 (sheet Fig. 7a), mean of three wells (head suffix _20 (concentration 20), reading M69): 2.09
Th-T fluorescence of Aβ42 (sheet Fig. 7a), mean of three wells (head suffix _20 (concentration 20), reading M70): 2.126
Th-T fluorescence of Aβ42 (sheet Fig. 7a), mean of three wells (head suffix _20 (concentration 20), reading M71): 2.116
Th-T fluorescence of Aβ42 (sheet Fig. 7a), mean of three wells (head suffix _20 (concentration 20), reading M72): 2.113
Th-T fluorescence of Aβ42 (sheet Fig. 7a), mean of three wells (head suffix _20 (concentration 20), reading M73): 2.112
Th-T fluorescence of Aβ42 (sheet Fig. 7a), mean of three wells (head suffix _20 (concentration 20), reading M74): 2.11
Th-T fluorescence of Aβ42 (sheet Fig. 7a), mean of three wells (head suffix _20 (concentration 20), reading M75): 2.104
Th-T fluorescence of Aβ42 (sheet Fig. 7a), mean of three wells (head suffix _20 (concentration 20), reading M76): 2.0857
Th-T fluorescence of Aβ42 (sheet Fig. 7a), mean of three wells (head suffix _20 (concentration 20), reading M77): 2.081
Th-T fluorescence of Aβ42 (sheet Fig. 7a), mean of three wells (head suffix _20 (concentration 20), reading M78): 2.114
Th-T fluorescence of Aβ42 (sheet Fig. 7a), mean of three wells (head suffix _20 (concentration 20), reading M79): 2.113
Th-T fluorescence of Aβ42 (sheet Fig. 7a), mean of three wells (head suffix _20 (concentration 20), reading M80): 2.11
Th-T fluorescence of Aβ42 (sheet Fig. 7a), mean of three wells (head suffix _20 (concentration 20), reading M81): 2.089
Th-T fluorescence of Aβ42 (sheet Fig. 7a), mean of three wells (head suffix _20 (concentration 20), reading M82): 2.121
Th-T fluorescence of Aβ42 (sheet Fig. 7a), mean of three wells (head suffix _20 (concentration 20), reading M83): 2.116
Th-T fluorescence of Aβ42 (sheet Fig. 7a), mean of three wells (head suffix _20 (concentration 20), reading M84): 2.082
Th-T fluorescence of Aβ42 (sheet Fig. 7a), mean of three wells (head suffix _50 (concentration 50), reading M63): 1.459
Th-T fluorescence of Aβ42 (sheet Fig. 7a), mean of three wells (head suffix _50 (concentration 50), reading M64): 1.462
Th-T fluorescence of Aβ42 (sheet Fig. 7a), mean of three wells (head suffix _50 (concentration 50), reading M65): 1.426
Th-T fluorescence of Aβ42 (sheet Fig. 7a), mean of three wells (head suffix _50 (concentration 50), reading M66): 1.435
Th-T fluorescence of Aβ42 (sheet Fig. 7a), mean of three wells (head suffix _50 (concentration 50), reading M67): 1.458
Th-T fluorescence of Aβ42 (sheet Fig. 7a), mean of three wells (head suffix _50 (concentration 50), reading M68): 1.453
Th-T fluorescence of Aβ42 (sheet Fig. 7a), mean of three wells (head suffix _50 (concentration 50), reading M69): 1.447
Th-T fluorescence of Aβ42 (sheet Fig. 7a), mean of three wells (head suffix _50 (concentration 50), reading M70): 1.435
Th-T fluorescence of Aβ42 (sheet Fig. 7a), mean of three wells (head suffix _50 (concentration 50), reading M71): 1.445
Th-T fluorescence of Aβ42 (sheet Fig. 7a), mean of three wells (head suffix _50 (concentration 50), reading M72): 1.442
